The values that follow come from US20250163038A1, “CBL-B MODULATORS AND USES THEREOF” (Nimbus Clio, Inc., priority 2021, published 2025).

Assay [1] concerns the target T1, Recombinant human c-Cbl (aa 47-435) (Homo sapiens, UniProt P22681).
T1 sequence (P22681 47-435): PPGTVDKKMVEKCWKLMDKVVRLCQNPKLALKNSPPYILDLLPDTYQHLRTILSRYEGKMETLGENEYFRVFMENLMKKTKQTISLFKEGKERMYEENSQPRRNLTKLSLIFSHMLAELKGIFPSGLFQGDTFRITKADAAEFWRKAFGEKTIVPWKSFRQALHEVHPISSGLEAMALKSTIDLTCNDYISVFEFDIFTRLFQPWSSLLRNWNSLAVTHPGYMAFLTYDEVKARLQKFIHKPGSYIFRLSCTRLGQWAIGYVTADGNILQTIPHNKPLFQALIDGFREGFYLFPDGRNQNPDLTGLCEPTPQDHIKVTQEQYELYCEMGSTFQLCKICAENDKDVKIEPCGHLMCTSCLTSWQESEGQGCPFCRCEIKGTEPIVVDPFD
Nature of the assay: c-Cbl Biochemical Assay (TR-FRET). The settings on record: hc-Cbl Biochemical Assay (TR-FRET); read-out: TR-FRET hcCbl IC50. For orientation: In TR-FRET formats the signal depends on donor and acceptor labels being close together.

Assay [2] concerns the target Recombinant human Cbl-b (aa 36-427) (Homo sapiens, UniProt Q13191). The assay is described as follows: Cbl-b Biochemical Assay (TR-FRET). The settings on record: read-out: TR-FRET hCbl-b IC50.

Bounds are passed on as bounds.

Sequence of Recombinant human Cbl-b (aa 36-427) (Q13191 36-427): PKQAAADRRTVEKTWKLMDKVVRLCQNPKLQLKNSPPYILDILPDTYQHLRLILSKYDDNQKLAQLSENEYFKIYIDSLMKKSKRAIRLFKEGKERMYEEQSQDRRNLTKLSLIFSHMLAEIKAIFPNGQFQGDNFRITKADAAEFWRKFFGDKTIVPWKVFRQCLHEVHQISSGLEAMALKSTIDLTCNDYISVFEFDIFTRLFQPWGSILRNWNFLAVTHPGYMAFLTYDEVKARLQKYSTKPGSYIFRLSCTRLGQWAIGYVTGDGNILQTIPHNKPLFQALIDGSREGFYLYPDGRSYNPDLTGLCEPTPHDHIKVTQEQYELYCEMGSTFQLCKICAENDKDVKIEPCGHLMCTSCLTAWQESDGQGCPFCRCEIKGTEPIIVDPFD

A word on the IC50: it is the concentration that inhibits the measured activity by half. In the case of `CCNc1cc(-c2c(-c3nncn3C)cnn2C)cc(-c2nc3cc(CN4CCC5(CC5)C4)cc(C(F)(F)F)c3[nH]2)n1` [AAM-2, 6-(6-{5-Azaspiro[2.4]heptan-5-ylmethyl}-4-(trifluoromethyl)-3H-1,3-benzodiazol-2-yl)-N-ethyl-4-[2-methyl-4-(4-methyl-1,2,4-triazol-3-yl)pyrazol-3-yl]pyridin-2-amine], the half-inhibitory concentration (IC50) in assay [1] lay in the range of 10 to 50 µM; in assay [2], 1 to 10 µM.
The matching figures for `CCNc1cc(-c2ccccc2-c2nncn2C)cc(-c2nc3cc(CO)cc(C(F)(F)F)c3[nH]2)n1` [AAN-3, {2-[6-(Ethylamino)-4-[2-(4-methyl-1,2,4-triazol-3-yl)phenyl]pyridin-2-yl]-7-(trifluoromethyl)-1H-1,3-benzodiazol-5-yl}methanol]: 10 to 50 µM and 10 to 50 µM.
In the same order, the values of `CCNc1cc(-c2ccccc2-c2nncn2C)cc(-n2nc3c(C(F)(F)F)cccn3c2=O)n1` [AAO-4, 2-(6-(Ethylamino)-4-(2-(4-methyl-4H-1,2,4-triazol-3-yl)phenyl)pyridin-2-yl)-8-(trifluoromethyl)-[1,2,4]triazolo[4,3-a]pyridin-3(2H)-one] are 10 to 50 µM and 10 to 50 µM.
Regarding `Cn1cnnc1C[C@]1(c2cccc(-c3nc4cccc(C(F)(F)F)c4o3)c2)C[C@H](C#N)C1` [AAT-14, (1r,3r)-3-((4-Methyl-4H-1,2,4-triazol-3-yl)methyl)-3-(3-(7-(trifluoromethyl)benzo[d]oxazol-2-yl)phenyl)cyclobutane-1-carbonitrile], the 50% inhibitory concentration (IC50) in assay [1] is 10 to 50 µM; in assay [2], 1 to 10 µM.
The matching figures for `Cn1cnnc1-c1cnn(C)c1-c1cccc(-c2nc3cc(CN[C@H]4CCC[C@@H]4O)cc(C(F)(F)F)c3o2)c1` [AAU-6, (1S,2S)-2-(((2-(3-(1-Methyl-4-(4-methyl-4H-1,2,4-triazol-3-yl)-1H-pyrazol-5-yl)phenyl)-7-(trifluoromethyl)benzo[d]oxazol-5-yl)methyl)amino)cyclopentan-1-ol]: 10 to 50 µM and 0.2 to 1 µM.
The matching figures for `Cn1cnnc1-c1cnn(C)c1-c1cccc(-c2nc3cc(CN[C@@H]4CCC[C@H]4O)cc(C(F)(F)F)c3o2)c1` [AAV-2, (1R,2R)-2-(((2-(3-(1-Methyl-4-(4-methyl-4H-1,2,4-triazol-3-yl)-1H-pyrazol-5-yl)phenyl)-7-(trifluoromethyl)benzo[d]oxazol-5-yl)methyl)amino)cyclopentan-1-ol]: 10 to 50 µM and 1 to 10 µM.
Consider `Cn1cnnc1CC1(c2cccc(-c3nc4cccc(C(F)(F)F)c4[nH]3)c2)COC1` [ABB-2, 2-(3-(3-((4-Methyl-4H-1,2,4-triazol-3-yl)methyl)oxetan-3-yl)phenyl)-7-(trifluoromethyl)-1H-benzo[d]imidazole], for which the 50% inhibitory concentration (IC50) in assay [1] and in assay [2] was 10 to 50 µM each time.
Take `Cn1cnnc1CC1(c2cccc(-c3nc4cccc(C(F)(F)F)n4n3)c2)COC1` [ABC-4, 2-(3-(3-((4-Methyl-4H-1,2,4-triazol-3-yl)methyl)oxetan-3-yl)phenyl)-5-(trifluoromethyl)-[1,2,4]triazolo[1,5-a]pyridine]: the IC50 in assay [1] and in assay [2] was 10 to 50 µM throughout.
In the case of `C[C@H](Cc1nncn1C)c1cccc(-c2nc3cccc(C(F)(F)F)c3[nH]2)c1` [ABD-9, 2-{3-[(2R)-1-(4-Methyl-1,2,4-triazol-3-yl)propan-2-yl]phenyl}-4-(trifluoromethyl)-3H-1,3-benzodiazole], the IC50 in assay [1] and in assay [2] was 10 to 50 µM each time.
As to `Cn1cnnc1CC1(c2cccc(-c3nc4cc(C(=O)N5CCCC5)cc(C(F)(F)F)c4[nH]3)c2)COC1` [ABH-4, (2-(3-(3-((4-Methyl-4H-1,2,4-triazol-3-yl)methyl)oxetan-3-yl)phenyl)-7-(trifluoromethyl)-1H-benzo[d]imidazol-5-yl)(pyrrolidin-1-yl)methanone], the half-maximal inhibitory concentration (IC50) in assay [1] and in assay [2] was 10 to 50 µM in each case.
Take `Cn1cnnc1CC1(c2cccc(-c3nc4cc(C(=O)N5CCC6(CC6)C5)cc(C(F)(F)F)c4[nH]3)c2)COC1` [ABJ-2, (2-(3-(3-((4-Methyl-4H-1,2,4-triazol-3-yl)methyl)oxetan-3-yl)phenyl)-7-(trifluoromethyl)-1H-benzo[d]imidazol-5-yl)(5-azaspiro[2.4]heptan-5-yl)methanone]: the IC50 in assay [1] and in assay [2] was 10 to 50 µM in each case.
As for `Cn1cnnc1CC1(c2cccc(-c3nc4cc(CN5CCCC5)cc(C(F)(F)F)c4[nH]3)c2)COC1` [ABL-1, 2-(3-(3-((4-Methyl-4H-1,2,4-triazol-3-yl)methyl)oxetan-3-yl)phenyl)-5-(pyrrolidin-1-ylmethyl)-7-(trifluoromethyl)-1H-benzo[d]imidazole], the IC50 lay within 10 to 50 µM in assay [1] and 0.2 to 1 µM in assay [2].
`Cn1cnnc1CC1(c2cccc(-c3cc(C(F)(F)F)c[nH]c3=O)c2)COC1` [ABO-1, 3-(3-(3-((4-Methyl-4H-1,2,4-triazol-3-yl)methyl)oxetan-3-yl)phenyl)-5-(trifluoromethyl)pyridin-2(1H)-one]: the values for the 50% inhibitory concentration (IC50) in assay [1] and in assay [2] were 10 to 50 µM and 0.2 to 1 µM, respectively.
The matching figures for `Cn1cnnc1CC1(c2cccc(-c3nc4cc(C(=O)N5CC[C@H](O)C5)cc(C(F)(F)F)c4[nH]3)c2)COC1` [ABR-2, (S)-(3-Hydroxypyrrolidin-1-yl)(2-(3-(3-((4-methyl-4H-1,2,4-triazol-3-yl)methyl)oxetan-3-yl)phenyl)-7-(trifluoromethyl)-1H-benzo[d]imidazol-5-yl)methanone]: 1 to 10 µM and under 0.2 µM.
In the same order, the values of `Cn1cnnc1CC1(c2cccc(-c3nc4cc(C(=O)N5CC[C@@H](O)C5)cc(C(F)(F)F)c4[nH]3)c2)COC1` [ABS-2, (R)-(3-Hydroxypyrrolidin-1-yl)(2-(3-(3-((4-methyl-4H-1,2,4-triazol-3-yl)methyl)oxetan-3-yl)phenyl)-7-(trifluoromethyl)-1H-benzo[d]imidazol-5-yl)methanone] are 10 to 50 µM and 10 to 50 µM.
The matching figures for `Cn1cnnc1CC1(c2cccc(-c3nc4cccc(C(F)(F)F)c4s3)c2)COC1` [ABT-2, 2-(3-(3-((4-Methyl-4H-1,2,4-triazol-3-yl)methyl)oxetan-3-yl)phenyl)-7-(trifluoromethyl)benzo[d]thiazole]: 10 to 50 µM and 1 to 10 µM.
On to `Cn1cnnc1-c1ccccc1-c1cccc(-c2nc3cccc(C(F)(F)F)n3n2)c1` [ABU-2, 2-(2′-(4-Methyl-4H-1,2,4-triazol-3-yl)-[1,1′-biphenyl]-3-yl)-5-(trifluoromethyl)-[1,2,4]triazolo[1,5-a]pyridine], for which the IC50 in assay [1] and in assay [2] was 10 to 50 µM throughout.
On to `Cn1cnnc1-c1ccccc1-c1cccc(-c2cc(C(F)(F)F)c[nH]c2=O)c1` [ABV-1, 3-(2′-(4-Methyl-4H-1,2,4-triazol-3-yl)-[1,1′-biphenyl]-3-yl)-5-(trifluoromethyl)pyridin-2(1H)-one], for which the IC50 in assay [1] and in assay [2] was 10 to 50 µM each time.
On to `Cn1cnnc1CC1(c2cccc(-c3cc(C4CC4)c[nH]c3=O)c2)COC1` [ABX-3, 5-Cyclopropyl-3-(3-(3-((4-methyl-4H-1,2,4-triazol-3-yl)methyl)oxetan-3-yl)phenyl)pyridin-2(1H)-one], for which the IC50 in assay [1] and in assay [2] was 10 to 50 µM each time.
